Measured values taken from article PMC6222706, “Evaluation of the Antioxidant and Neuroprotectant Activities of New Asymmetrical 1,3-Diketones” (Molecules : A Journal of Synthetic Chemistry and Natural …, 2018).

Experiments:
[1] = test system: SH-SY5Y cells; test: Intracellular ROS levels (DCFH2-DA) in SH-SY5Y cells under H2O2; type: cell-based, human
Procedure: Oxidative stress increases ROS levels, which may cause cell damage and death. Therefore, ROS production caused by H2O2 was evaluated in cells pretreated with or without derivatives 6b and 7b. In these studies, DFCH-DA method was used to measure by fluorescence the ROS intracellular levels, under two different compound treatment regimens. […] From both experiments, it could be concluded that 6b and 7b reduce intracellular ROS, and that longer treatment period seems to be needed to achieve a better ROS reduction.
Intracellular ROS levels were determined using dichlorofluorescein diacetate (DCFH2-DA) according to Wang et al.. DCFH2-DA is cleaved by intracellular esterases and oxidized by ROS to form the fluorescent compound DCF, which measure represents the ROS level. So, 3 × 10^3 SH-SY5Y cells were seeded in 96 well plates and after 24 h, treated with the test compound for an additional 24 h. […] After the incubation period, cells were washed twice with Hanks buffer and loaded with 20 µM DCFH2-DA (in FBS-free culture medium) for 40 min in dark at 37 °C in a CO2 incubator. At the end of the dye incubation period, they were washed twice with Hanks buffer to remove the extracellular DCFH2-DA. Fluorescence was measured with a Varioskan microplate reader at 485 nm excitation and 535 nm emission wavelength. Results are expressed as the percentage of fluorescent increase compared with that of the control. All the experiments were performed at least three times by quadruplicate for each compound concentration.

[2] = test system: SH-SY5Y cells; test: Mitochondrial membrane potential by flow cytometry (JC-1) in SH-SY5Y cells under H2O2; type: cell-based, human; settings: 7b for 24 h, then 400 µM H2O2 for 4 h, JC-1 flow cytometry
Procedure: To confirm this MMP recovery results, flow cytometry experiments were carried out with compound 7b and SH-SY5Y cells. Cells were treated with 7b for 24 h and then were exposed to 400 µM H2O2 for 4 h. JC-1 was used as fluorescence indicator of MMP state. In flow cytometry studies of MMP, JC-1 is excited at 488 nm wavelength. Both JC-1 aggregates and monomers show green fluorescence (peak emission at 527 nm) measured in the FL1 channel. […] Thus, healthy non-apoptotic cells are detected in both FL1 and FL2 channels, while cells with disrupted mitochondrial function show fluorescence in FL1 channel but reduced FL2 intensity. […] From these flow cytometry experiments, we can confirm that after compound 7b treatment there is a significant MMP recovery in SH-SY5Y cells under oxidative stress pressure.
For MMP flow cytometry studies, 10^5 SH-SY5Y cells were seeded in 6 well plates. After 24 h, cells were treated with test compound and incubated for other 24 h. After the treatment period, cells were exposed to H2O2 for 4 h. Then, cells were washed twice with Hanks buffer and stained with 5 µM JC-1 in culture media in dark, in a CO2 incubator at 37 °C for 20 min. After the staining period, cells were washed three times with Hanks buffer, collected and resuspended in 500 µL culture media. Data were obtained and analyzed using an Accuri C6 flow cytometer (BD Biosciences, Ann Arbour, MI, USA). […]

[3] = 6 h compound treatment followed by 2 h 500 µM H2O2
[4] = 24 h compound treatment prior to 400 µM H2O2 for 4 h

| SMILES | Intracellular ROS level [1, 3] | Intracellular ROS level [1, 4] | FLA-1/FLA-2 ratio [2] |
| --- | --- | --- | --- |
| O=C(/C=C(O)/C=C/c1cc(F)c(O)cc1F)C(F)(F)F [Compound 6b, (3Z,5E)-6-(2,5-difluoro-4-hydroxyphenyl)-1,1,1-trifluoro-4-hydroxyhexa-3,5-dien-2-one] | significant ROS level decrease | significant ROS level reduction | – |
| O=C(/C=C(O)/C=C/c1ccc(O)c(F)c1F)C(F)(F)F [Compound 7b, (3Z,5E)-6-(2,3-Difluoro-4-hydroxyphenyl)-1,1,1-trifluoro-4-hydroxyhexa-3,5-dien-2-one] | significant ROS level decrease | significant ROS level reduction | significant reduction of that ratio |
